From ChEMBL document CHEMBL1141900, “Synthesis and antibacterial activity of C2-fluoro, C6-carbamate ketolides, and their C9-oximes” (2005)
≈ marks a conversion by molar mass, not a printed value.

Columns and labels:
Assay type in all cases: functional
[1] = tested on: Staphylococcus aureus; test: Minimum inhibitory concentration of the compound against erythromycin-susceptible Staphylococcus aureus Smith OC4172 was determined
[2] = tested on: Streptococcus pneumoniae; test: Minimum inhibitory concentration of the compound against erythromycin-susceptible Streptococcus pneumoniae was determined
[3] = tested on: Streptococcus pneumoniae; test: Minimum inhibitory concentration of the compound against 3 […] Streptococcus pneumoniae OC4051 with an erm(B)-ribosomal methylase-mediated resistance was determined
[4] = tested on: Haemophilus influenzae; test: Minimum inhibitory concentration of the compound against Haemophilus influenzae OC4882 was determined
[5] = tested on: Streptococcus pneumoniae; test: Minimum inhibitory concentration of the compound against 3 […] Streptococcus pneumoniae OC4421 with an mef(A) efflux-mediated resistance was determined
[6] = tested on: Enterococcus faecalis; test: Minimum inhibitory concentration of the compound againstEnterococcus faecalis ATCC 51299 with an erm(B)-encoded ribosomal methylase was determined
[7] = tested on: Mus musculus; test: Effective dose required to inhibit Staphylococcus aureus in mouse was determined after peroral administration of the compound; details: po
[8] = tested on: Mus musculus; test: Effective dose required to inhibit Staphylococcus aureus in mouse was determined after sub cutaneous administration (6.6-70)

SMILES	MIC [1]	MIC [2]	MIC [3]	MIC [4]	MIC [5]	MIC [6]	ED50 [7]	ED50 [8]
CC[C@H]1OC(=O)[C@@](C)(F)C(=O)[C@H](C)[C@@H](O[C@@H]2O[C@H](C)C[C@H](N(C)C)[C@H]2O)[C@](C)(OC(=O)NC/C=C/c2cccnc2)C[C@@H](C)/C(=N\O)[C@H](C)[C@H]2NC(=O)O[C@@]21C	0.5 µg/mL (≈ 0.631 µM)	0.06 µg/mL (≈ 0.0758 µM)	0.12 µg/mL (≈ 0.152 µM)	2 µg/mL (≈ 2.53 µM)	0.5 µg/mL (≈ 0.631 µM)	> 16 µg/mL	–	–
CC[C@H]1OC(=O)[C@@](C)(F)C(=O)[C@H](C)[C@@H](O[C@@H]2O[C@H](C)C[C@H](N(C)C)[C@H]2O)[C@](C)(OC(=O)NC/C=C/c2ccc(-c3ccncn3)cc2)C[C@@H](C)C(=O)[C@H](C)[C@H]2NC(=O)O[C@@]21C	0.25 µg/mL (≈ 0.293 µM)	0.03 µg/mL (≈ 0.0351 µM)	0.06 µg/mL (≈ 0.0703 µM)	4 µg/mL (≈ 4.68 µM)	0.12 µg/mL (≈ 0.141 µM)	> 16 µg/mL	–	–
CC[C@H]1OC(=O)[C@@](C)(F)C(=O)[C@H](C)[C@@H](O[C@@H]2O[C@H](C)C[C@H](N(C)C)[C@H]2O)[C@](C)(OC(=O)NC/C=C/c2ccc(-c3ccccn3)cc2)C[C@@H](C)C(=O)[C@H](C)[C@H]2NC(=O)O[C@@]21C	0.25 µg/mL (≈ 0.293 µM)	0.06 µg/mL (≈ 0.0703 µM)	0.06 µg/mL (≈ 0.0703 µM)	4 µg/mL (≈ 4.69 µM)	0.12 µg/mL (≈ 0.141 µM)	4 µg/mL (≈ 4.69 µM)	–	–
CC[C@H]1OC(=O)[C@@](C)(F)C(=O)[C@H](C)[C@@H](O[C@@H]2O[C@H](C)C[C@H](N(C)C)[C@H]2O)[C@](C)(OC(=O)NCCOCc2ccc(-c3ncccn3)cc2)C[C@@H](C)/C(=N\O)[C@H](C)[C@H]2NC(=O)O[C@@]21C	0.5 µg/mL (≈ 0.564 µM)	0.06 µg/mL (≈ 0.0676 µM)	0.06 µg/mL (≈ 0.0676 µM)	8 µg/mL (≈ 9.02 µM)	0.25 µg/mL (≈ 0.282 µM)	16 µg/mL (≈ 18 µM)	–	–
CC[C@H]1OC(=O)[C@@](C)(F)C(=O)[C@H](C)[C@@H](O[C@@H]2O[C@H](C)C[C@H](N(C)C)[C@H]2O)[C@](C)(OC(=O)NC/C=C/c2cn(-c3ncccn3)cn2)C[C@@H](C)C(=O)[C@H](C)[C@H]2NC(=O)O[C@@]21C	0.12 µg/mL (≈ 0.142 µM)	0.03 µg/mL (≈ 0.0355 µM)	0.06 µg/mL (≈ 0.0711 µM)	8 µg/mL (≈ 9.48 µM)	0.25 µg/mL (≈ 0.296 µM)	8 µg/mL (≈ 9.48 µM)	–	–
CC[C@H]1OC(=O)[C@@](C)(F)C(=O)[C@H](C)[C@@H](O[C@@H]2O[C@H](C)C[C@H](N(C)C)[C@H]2O)[C@](C)(OC(=O)NCc2ccc(-c3ccncn3)cc2)C[C@@H](C)C(=O)[C@H](C)[C@H]2NC(=O)O[C@@]21C	0.12 µg/mL (≈ 0.145 µM)	0.03 µg/mL (≈ 0.0362 µM)	0.06 µg/mL (≈ 0.0725 µM)	4 µg/mL (≈ 4.83 µM)	0.12 µg/mL (≈ 0.145 µM)	16 µg/mL (≈ 19.3 µM)	–	–
CC[C@H]1OC(=O)[C@@](C)(F)C(=O)[C@H](C)[C@@H](O[C@@H]2O[C@H](C)C[C@H](N(C)C)[C@H]2O)[C@](C)(OC(=O)NC/C=C/c2ccc(-c3ncccn3)o2)C[C@@H](C)C(=O)[C@H](C)[C@H]2NC(=O)O[C@@]21C	0.5 µg/mL (≈ 0.592 µM)	0.06 µg/mL (≈ 0.0711 µM)	0.12 µg/mL (≈ 0.142 µM)	16 µg/mL (≈ 19 µM)	0.5 µg/mL (≈ 0.592 µM)	> 16 µg/mL	–	–
CC[C@H]1OC(=O)[C@@](C)(F)C(=O)[C@H](C)[C@@H](O[C@@H]2O[C@H](C)C[C@H](N(C)C)[C@H]2O)[C@](C)(OC(=O)NCCOCc2ccc(-c3ncccn3)cc2)C[C@@H](C)C(=O)[C@H](C)[C@H]2NC(=O)O[C@@]21C	0.25 µg/mL (≈ 0.287 µM)	0.06 µg/mL (≈ 0.0688 µM)	0.12 µg/mL (≈ 0.138 µM)	8 µg/mL (≈ 9.17 µM)	0.12 µg/mL (≈ 0.138 µM)	> 16 µg/mL	–	–
CC[C@H]1OC(=O)[C@@](C)(F)C(=O)[C@H](C)[C@@H](O[C@@H]2O[C@H](C)C[C@H](N(C)C)[C@H]2O)[C@](C)(OC(=O)NC/C=C/c2ccc(-c3ncccn3)cc2)C[C@@H](C)C(=O)[C@H](C)[C@H]2NC(=O)O[C@@]21C	0.5 µg/mL (≈ 0.585 µM)	0.06 µg/mL (≈ 0.0703 µM)	0.12 µg/mL (≈ 0.141 µM)	8 µg/mL (≈ 9.37 µM)	0.12 µg/mL (≈ 0.141 µM)	8 µg/mL (≈ 9.37 µM)	> 40 mg/kg	12 mg/kg
CC[C@H]1OC(=O)[C@@](C)(F)C(=O)[C@H](C)[C@@H](O[C@@H]2O[C@H](C)C[C@H](N(C)C)[C@H]2O)[C@](C)(OC(=O)NC/C=C/c2ccc(-c3cccnn3)cc2)C[C@@H](C)C(=O)[C@H](C)[C@H]2NC(=O)O[C@@]21C	0.12 µg/mL (≈ 0.141 µM)	0.03 µg/mL (≈ 0.0351 µM)	0.06 µg/mL (≈ 0.0703 µM)	4 µg/mL (≈ 4.68 µM)	0.12 µg/mL (≈ 0.141 µM)	4 µg/mL (≈ 4.68 µM)	–	–
CC[C@H]1OC(=O)[C@@](C)(F)C(=O)[C@H](C)[C@@H](O[C@@H]2O[C@H](C)C[C@H](N(C)C)[C@H]2O)[C@](C)(OC(N)=O)C[C@@H](C)/C(=N\O)[C@H](C)[C@H]2NC(=O)O[C@@]21C	1 µg/mL (≈ 1.48 µM)	0.12 µg/mL (≈ 0.178 µM)	2 µg/mL (≈ 2.96 µM)	4 µg/mL (≈ 5.93 µM)	2 µg/mL (≈ 2.96 µM)	> 16 µg/mL	–	–
CC[C@H]1OC(=O)[C@@](C)(F)C(=O)[C@H](C)[C@@H](O[C@@H]2O[C@H](C)C[C@H](N(C)C)[C@H]2O)[C@](C)(OC(=O)NC/C=C/c2cncc(-c3ccccn3)c2)C[C@@H](C)C(=O)[C@H](C)[C@H]2NC(=O)O[C@@]21C	0.25 µg/mL (≈ 0.293 µM)	0.03 µg/mL (≈ 0.0351 µM)	0.06 µg/mL (≈ 0.0703 µM)	8 µg/mL (≈ 9.37 µM)	0.12 µg/mL (≈ 0.141 µM)	4 µg/mL (≈ 4.68 µM)	–	–
